Read-outs that look alike come from different tables or passages of the source.
Tests used:
Atlantic cod Ahr1a = Atlantic cod Ahr1a (Gadus morhua, UniProt A0A6H1Z2L5); assay: cell-based; conditions: for Activation of Ahr1a (agonist or not): in vitro transactivation; for Ahr1a REP25: EC25 of TCDD divided by concentration of PAC giving 25% of TCDD response; for Efficacy compared to TCDD with Ahr1a: Welch's t-test, Supporting Table S6
Atlantic cod Ahr2a = molecular target: T1, Atlantic cod Ahr2a (Gadus morhua, UniProt A0A6H1Z3G8); assay: cell-based; conditions: for Activation of Ahr2a (agonist or not): in vitro transactivation; for Ahr2a REP25: EC25 of TCDD divided by concentration of PAC giving 25% of TCDD response; for Efficacy compared to TCDD via Ahr2a: Welch's t-test, Supporting Table S6; for fold higher REP25 with Ahr2a compared to Ahr1a: Ahr2a versus Ahr1a
T1 sequence (A0A6H1Z3G8 1-1127): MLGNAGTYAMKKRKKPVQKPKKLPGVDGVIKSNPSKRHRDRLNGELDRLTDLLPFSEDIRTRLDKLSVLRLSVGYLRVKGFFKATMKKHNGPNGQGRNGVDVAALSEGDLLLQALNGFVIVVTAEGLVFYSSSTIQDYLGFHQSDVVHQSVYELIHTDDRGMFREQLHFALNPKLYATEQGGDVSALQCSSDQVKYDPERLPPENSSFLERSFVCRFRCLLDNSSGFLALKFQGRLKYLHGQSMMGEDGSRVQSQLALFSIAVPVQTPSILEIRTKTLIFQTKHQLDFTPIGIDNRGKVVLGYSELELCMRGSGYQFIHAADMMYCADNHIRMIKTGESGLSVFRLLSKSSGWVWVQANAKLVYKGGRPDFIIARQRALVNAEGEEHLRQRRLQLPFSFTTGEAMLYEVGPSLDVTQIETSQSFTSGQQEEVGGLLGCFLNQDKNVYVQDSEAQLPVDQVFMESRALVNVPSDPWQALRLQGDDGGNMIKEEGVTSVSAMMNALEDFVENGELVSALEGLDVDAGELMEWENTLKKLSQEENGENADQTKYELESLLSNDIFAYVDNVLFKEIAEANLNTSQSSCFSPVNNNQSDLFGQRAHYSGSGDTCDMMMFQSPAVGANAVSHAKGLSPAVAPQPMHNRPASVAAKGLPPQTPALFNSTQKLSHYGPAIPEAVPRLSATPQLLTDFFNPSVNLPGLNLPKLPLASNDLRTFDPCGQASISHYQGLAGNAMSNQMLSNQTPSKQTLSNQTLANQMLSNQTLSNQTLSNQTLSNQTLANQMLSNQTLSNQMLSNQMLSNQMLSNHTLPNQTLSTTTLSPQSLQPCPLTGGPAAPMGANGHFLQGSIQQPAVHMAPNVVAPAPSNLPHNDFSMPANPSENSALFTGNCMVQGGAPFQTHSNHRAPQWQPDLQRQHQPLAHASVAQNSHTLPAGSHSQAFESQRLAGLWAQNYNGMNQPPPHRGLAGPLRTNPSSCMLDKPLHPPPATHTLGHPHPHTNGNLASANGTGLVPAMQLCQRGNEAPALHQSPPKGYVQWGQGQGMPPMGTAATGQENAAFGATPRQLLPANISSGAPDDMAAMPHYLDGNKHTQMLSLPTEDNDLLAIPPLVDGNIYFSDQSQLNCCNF

[1] = percent of maximum efficacy determined for TCDD, COS-7 cells, 24 h exposure, None = no agonistic response significantly different from solvent
[2] = COS-7 cells, 24 h exposure, read-out: Ahr1a EC50
[3] = Supplementary Table S5, read-out: Potency (EC50, nM) Ahr1a
[4] = percent of maximum efficacy determined for TCDD, COS-7 cells, 24 h exposure, None = no agonistic response significantly different from solvent, read-out: Ahr1a Relative Emax (%)
[5] = COS-7 cells, 24 h exposure, read-out: Ahr2a EC50
[6] = Supplementary Table S5, read-out: Potency (EC50, nM) Ahr2a
[7] = percent of maximum efficacy determined for TCDD, COS-7 cells, 24 h exposure, None = no agonistic response significantly different from solvent, read-out: Ahr2a Relative Emax (%)
[8] = Ahr1a EC50 (nM), COS-7 cells, 24 h exposure
[9] = COS-7, read-out: Ahr1a Relative Emax (%)
[10] = Ahr2a EC50 (nM), COS-7 cells, 24 h exposure
[11] = COS-7, read-out: Ahr2a Relative Emax (%)
[12] = COS-7, Supplementary Table S5, read-out: Efficacy (Emax, %) Ahr1a
[13] = COS-7, Supplementary Table S5, read-out: Efficacy (Emax, %) Ahr2a
[14] = COS-7, curve did not reach a plateau: relative response at the highest tested concentration, percent of TCDD maximum, read-out: Ahr1a Relative Emax (%), marked *
[15] = COS-7, curve did not reach a plateau: relative response at the highest tested concentration, percent of TCDD maximum, read-out: Ahr2a Relative Emax (%), marked *

Chain of Atlantic cod Ahr1a (A0A6H1Z2L5 1-957): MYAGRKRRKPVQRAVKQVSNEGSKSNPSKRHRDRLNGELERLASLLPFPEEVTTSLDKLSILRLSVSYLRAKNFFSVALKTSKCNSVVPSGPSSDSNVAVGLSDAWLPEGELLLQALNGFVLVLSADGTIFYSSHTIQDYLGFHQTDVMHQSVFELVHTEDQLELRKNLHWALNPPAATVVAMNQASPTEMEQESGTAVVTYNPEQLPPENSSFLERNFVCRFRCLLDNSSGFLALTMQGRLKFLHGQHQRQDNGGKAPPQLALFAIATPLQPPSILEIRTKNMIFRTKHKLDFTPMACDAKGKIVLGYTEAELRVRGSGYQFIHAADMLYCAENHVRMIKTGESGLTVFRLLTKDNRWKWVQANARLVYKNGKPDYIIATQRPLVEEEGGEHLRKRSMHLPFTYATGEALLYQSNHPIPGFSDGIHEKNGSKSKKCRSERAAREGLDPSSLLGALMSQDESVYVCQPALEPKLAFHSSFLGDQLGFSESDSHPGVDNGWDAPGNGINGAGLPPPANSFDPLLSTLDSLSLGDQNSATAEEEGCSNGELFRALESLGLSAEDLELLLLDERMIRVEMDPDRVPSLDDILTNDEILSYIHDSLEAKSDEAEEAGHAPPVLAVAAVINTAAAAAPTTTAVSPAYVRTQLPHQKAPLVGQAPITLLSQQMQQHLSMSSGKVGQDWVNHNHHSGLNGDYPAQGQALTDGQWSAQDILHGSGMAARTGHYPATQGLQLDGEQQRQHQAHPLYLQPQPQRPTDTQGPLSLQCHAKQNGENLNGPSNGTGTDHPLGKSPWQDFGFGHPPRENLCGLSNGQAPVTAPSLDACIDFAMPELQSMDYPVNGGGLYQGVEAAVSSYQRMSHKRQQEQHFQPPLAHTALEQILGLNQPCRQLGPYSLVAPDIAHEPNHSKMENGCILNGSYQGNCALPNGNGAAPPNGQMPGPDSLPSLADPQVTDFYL
Chain of Atlantic cod Ahr1a (A0A8C5CZZ9 1-645 partner): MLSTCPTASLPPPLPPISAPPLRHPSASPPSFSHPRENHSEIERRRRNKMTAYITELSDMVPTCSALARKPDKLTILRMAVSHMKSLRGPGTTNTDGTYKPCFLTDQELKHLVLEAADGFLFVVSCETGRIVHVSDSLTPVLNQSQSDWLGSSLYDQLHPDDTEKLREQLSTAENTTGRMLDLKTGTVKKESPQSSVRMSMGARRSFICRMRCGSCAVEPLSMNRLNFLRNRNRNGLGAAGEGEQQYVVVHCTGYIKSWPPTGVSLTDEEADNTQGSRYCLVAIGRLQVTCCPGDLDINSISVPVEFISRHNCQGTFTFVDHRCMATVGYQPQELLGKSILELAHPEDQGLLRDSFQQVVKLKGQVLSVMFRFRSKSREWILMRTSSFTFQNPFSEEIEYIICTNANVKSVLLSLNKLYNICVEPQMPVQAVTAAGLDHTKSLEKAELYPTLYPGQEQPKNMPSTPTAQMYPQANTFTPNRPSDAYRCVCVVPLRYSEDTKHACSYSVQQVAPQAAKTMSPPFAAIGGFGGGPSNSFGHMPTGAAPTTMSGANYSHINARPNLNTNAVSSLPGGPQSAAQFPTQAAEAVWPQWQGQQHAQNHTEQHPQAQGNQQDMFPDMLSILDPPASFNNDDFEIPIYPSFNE

Structure (SMILES)	Activation of Ahr1a (agonist or not) (Atlantic cod Ahr1a)	Ahr1a Relative Emax (%) (Atlantic cod Ahr1a; [1])	Activation of Ahr2a (agonist or not) (Atlantic cod Ahr2a)	Ahr2a Relative Emax (%) (Atlantic cod Ahr2a; [1])	Ahr1a REP25 (Atlantic cod Ahr1a)	Efficacy compared to TCDD with Ahr1a (Atlantic cod Ahr1a)	Ahr2a REP25 (Atlantic cod Ahr2a)	other results
Cc1ccc(C)c2c1ccc1ccccc12 [1,4-DMP, 1,4-Dimethylphenanthrene]	did not activate	None	did not activate	None	–	–	–	–
Cc1ccc2c(ccc3c(C)cccc32)c1 [1,7-DMP, 1,7-Dimethylphenanthrene]	did not activate	None	did not activate	None	–	–	–	–
COc1cccc2c1ccc1c3ccccc3ccc21 [1-MOC, 1-Methoxychrysene]	–	–	–	–	0.0277	efficacies similar to that of TCDD	0.0243	EC50 (Atlantic cod Ahr1a; [2]): 102 nM; EC50 (Atlantic cod Ahr1a; [3]): 102 nM; Emax (Atlantic cod Ahr1a; [4]): 97.3%; EC50 (Atlantic cod Ahr2a; [5]): 160 nM; EC50 (Atlantic cod Ahr2a; [6]): 160 nM; Efficacy compared to TCDD via Ahr2a (Atlantic cod Ahr2a): lower efficacies in comparison to TCDD; Emax (Atlantic cod Ahr2a; [7]): 66.4%
Cc1ccc2c(ccc3cc(C)ccc32)c1 [2,7-DMP, 2,7-Dimethylphenanthrene]	did not activate	None	did not activate	None	–	–	–	–
Oc1ccc2c(ccc3c4ccccc4ccc23)c1 [2-COH, Chrysene-2-ol]	–	–	–	–	0.00268	efficacies similar to that of TCDD	0.0038	EC50 (Atlantic cod Ahr1a; [8]): 325 nM; Emax (Atlantic cod Ahr1a; [9]): 91.1%; EC50 (Atlantic cod Ahr1a; Potency (EC50, nM) Ahr1a, Supplementary Table S5): 324 nM; EC50 (Atlantic cod Ahr2a; [10]): 380 nM; Emax (Atlantic cod Ahr2a; [11]): 40.8%; Efficacy compared to TCDD via Ahr2a (Atlantic cod Ahr2a): lower efficacies in comparison to TCDD
Cc1ccc2c(ccc3c4ccccc4ccc23)c1 [2-MC, 2-Methylchrysene]	–	–	–	–	0.324	higher efficacies (superefficacies) than TCDD	–	Emax (Atlantic cod Ahr1a; [12]): 125%; EC50 (Atlantic cod Ahr1a; [2]): 22 nM; Emax (Atlantic cod Ahr1a; [4]): 125%; Emax (Atlantic cod Ahr2a; [13]): 127%; EC50 (Atlantic cod Ahr2a; [5]): 41.8 nM; Efficacy compared to TCDD via Ahr2a (Atlantic cod Ahr2a): superefficacies; Emax (Atlantic cod Ahr2a; [7]): 127%
COc1ccc2c(ccc3c4ccccc4ccc23)c1 [2-MOC, 2-Methoxychrysene]	–	–	–	–	0.244	efficacies similar to that of TCDD	–	EC50 (Atlantic cod Ahr1a; [2]): 13 nM; Emax (Atlantic cod Ahr1a; [4]): 95.9%; Emax (Atlantic cod Ahr2a; [13]): 114%; EC50 (Atlantic cod Ahr2a; [5]): 20.1 nM; Efficacy compared to TCDD via Ahr2a (Atlantic cod Ahr2a): superefficacies; Emax (Atlantic cod Ahr2a; [7]): 115%
Cc1ccc2ccc3ccc(C)cc3c2c1 [3,6-DMP, 3,6-Dimethylphenanthrene]	did not activate	None	did not activate	None	–	–	–	–
CCc1ccc2ccc3ccccc3c2c1 [3-EP, 3-Ethylphenanthrene]	did not activate	None	did not activate	None	–	–	–	–
Cc1ccc2ccc3c4ccccc4ccc3c2c1 [3-MC, 3-Methylchrysene]	–	–	–	–	0.0413	efficacies similar to that of TCDD	0.167	Emax (Atlantic cod Ahr1a; [12]): 110%; EC50 (Atlantic cod Ahr1a; [3]): 101 nM; Emax (Atlantic cod Ahr1a; [4]): 111%; Emax (Atlantic cod Ahr2a; [13]): 102%; EC50 (Atlantic cod Ahr2a; [5]): 54 nM; Emax (Atlantic cod Ahr2a; [7]): 102%
CCCc1ccc2ccc3ccccc3c2c1 [3-PP, 3-Propylphenanthrene]	activated both Ahr1a and Ahr2a	–	activated both Ahr1a and Ahr2a	–	0.00011	–	–	Emax (Atlantic cod Ahr1a; [14]): 42.5%; Emax (Atlantic cod Ahr2a; [7]): 12.4%
Oc1cccc2ccc3c4ccccc4ccc3c12 [4-COH, Chrysene-4-ol]	–	–	–	–	0.00105	efficacies similar to that of TCDD	0.0016	EC50 (Atlantic cod Ahr1a; [2]): 1340 nM; Emax (Atlantic cod Ahr1a; [4]): 91.7%; Emax (Atlantic cod Ahr2a; [15]): 98.8%; EC50 (Atlantic cod Ahr2a; [6]): 11000 nM
Cc1cccc2ccc3c4ccccc4ccc3c12 [4-MC, 4-Methylchrysene]	–	–	–	–	0.041	higher efficacies (superefficacies) than TCDD	0.0217	Emax (Atlantic cod Ahr1a; [12]): 112%; EC50 (Atlantic cod Ahr1a; [2]): 120 nM; Emax (Atlantic cod Ahr1a; [4]): 113%; EC50 (Atlantic cod Ahr2a; [5]): 128 nM; EC50 (Atlantic cod Ahr2a; [6]): 128 nM; Efficacy compared to TCDD via Ahr2a (Atlantic cod Ahr2a): lower efficacies in comparison to TCDD; Emax (Atlantic cod Ahr2a; [7]): 55.9%
c1ccc2c(c1)cc1ccc3cccc4ccc2c1c34 [BAP, Benzo[a]pyrene]	agonist for both Ahrs	–	agonist for both Ahrs	–	0.0956	higher efficacies (superefficacies) than TCDD	–	EC50 (Atlantic cod Ahr1a; [8]): 25.8 nM; Emax (Atlantic cod Ahr1a; [9]): 107%; Emax (Atlantic cod Ahr1a; COS-7, read-out: Efficacy (Emax, %) Ahr1a): 107%; EC50 (Atlantic cod Ahr2a; [10]): 6.8 nM; fold higher REP25 with Ahr2a compared to Ahr1a (Atlantic cod Ahr2a): 5- to 10 fold; Emax (Atlantic cod Ahr2a; [11]): 103%; Emax (Atlantic cod Ahr2a; COS-7, read-out: Efficacy (Emax, %) Ahr2a): 103%
c1ccc2c(c1)sc1ccccc12 [DBT, Dibenzothiophene]	did not activate	None	did not activate	None	–	–	–	–
c1ccc2c(c1)Cc1ccccc1-2 [FLU, Fluorene]	did not activate	None	did not activate	None	–	–	–	–
c1ccc2ccccc2c1 [NAP, Naphthalene]	did not activate	None	did not activate	None	–	–	–	–
c1ccc2c(c1)ccc1ccccc12 [PHE, Phenanthrene]	did not activate	None	did not activate	None	–	–	–	–
c1cc2ccc3cccc4ccc(c1)c2c34 [PYR, Pyrene]	did not activate	None	did not activate	None	–	–	–	–
O[C@@H]1C=Cc2ccccc2[C@H]1O [R,R-1,2-DHN, (1R,2R)-1.2-Dihydronaphthalene-1,2-diol]	activated both Ahr1a and Ahr2a	–	activated both Ahr1a and Ahr2a	–	0.00028	–	0.00124	Emax (Atlantic cod Ahr1a; [14]): 145%; fold higher REP25 with Ahr2a compared to Ahr1a (Atlantic cod Ahr2a): 5- to 10 fold; Emax (Atlantic cod Ahr2a; [15]): 140%
O[C@@H]1C=Cc2c(ccc3ccccc23)[C@H]1O [R,R-1,2-DHP, (1R,2R)-1.2-Dihydrophenanthrene-1,2-diol]	activated both Ahr1a and Ahr2a	–	activated both Ahr1a and Ahr2a	–	0.00002	–	0.000044	Emax (Atlantic cod Ahr1a; [14]): 36.1%; Emax (Atlantic cod Ahr2a; [15]): 25.9%

Reference: PMC8600679, “Substituted Two- to Five-Ring Polycyclic Aromatic Compounds Are Potent Agonists of Atlantic Cod (Gadus morhua) Aryl Hydrocarbon Receptors Ahr1a and Ahr2a” (Environmental Science & Technology, 2021)
